Assay results taken from US9546153B2, “Bicyclic heterocycle substituted pyridyl compounds useful as kinase modulators” (BRISTOL-MYERS SQUIBB COMPANY, priority 2012, dated 2017).

target: IRAK4 (Homo sapiens (Human), UniProt Q9NWZ3); assay: IRAK4 Inhibition Assay; type: biochemical; conditions: ATP 500 μM; IRAK4 0.6 nM; 60 min at room temperature
Protocol: The assays were performed in U-bottom 384-well plates. […] The reaction was initiated by the combination of IRAK4 with substrates and test compounds. The reaction was incubated at room temperature for 60 min. and terminated by adding 45 μL of 35 mM EDTA to each sample. The reaction mixture was analyzed on the Caliper LABCHIP® 3000 (Caliper, Hopkinton, Mass.) by electrophoretic separation of the fluorescent substrate and phosphorylated product.

Sequence of IRAK4 (Q9NWZ3 whole entry, species assumed): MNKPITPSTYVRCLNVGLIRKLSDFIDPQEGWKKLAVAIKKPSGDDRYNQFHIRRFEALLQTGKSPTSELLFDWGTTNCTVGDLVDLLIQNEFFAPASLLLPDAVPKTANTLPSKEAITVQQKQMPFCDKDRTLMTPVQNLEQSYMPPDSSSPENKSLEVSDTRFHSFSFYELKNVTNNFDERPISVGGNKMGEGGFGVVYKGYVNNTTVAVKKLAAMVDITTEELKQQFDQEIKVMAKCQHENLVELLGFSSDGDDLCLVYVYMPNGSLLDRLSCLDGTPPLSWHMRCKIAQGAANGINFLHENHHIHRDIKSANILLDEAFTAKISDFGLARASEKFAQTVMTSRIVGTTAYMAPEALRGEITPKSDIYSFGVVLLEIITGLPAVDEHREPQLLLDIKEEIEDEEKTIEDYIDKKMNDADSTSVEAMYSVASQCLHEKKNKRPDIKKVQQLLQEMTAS

Row | Compound | IC50
1 | CC(C)(O)[C@H](F)CNC(=O)c1cnc(Nc2ncc3ncccc3n2)cc1NC1CCC(F)C1 (stereo partly shown) [Example 448] | 0.0165 µM
2 | CC(F)CNc1cc(Nc2ccc3ncsc3c2)ncc1C(=O)NC[C@@H](F)C(C)(C)O (stereo partly shown) [Example 450] | 0.0017 µM
3 | CC(F)CNc1cc(Nc2ccc3ncsc3c2)ncc1C(=O)NC[C@@H](F)C(C)(C)O (stereo partly shown) [Example 451] | 0.005 µM
4 | CC(C)(O)[C@H](F)CNC(=O)c1cnc(Nc2ccn3nccc3n2)cc1NC1CC2CC2C1(F)F (stereo partly shown) [Example 452] | 0.0025 µM
5 | CC(C)(O)c1cnc(Nc2cc(Nc3nc4ccnn4cc3F)ncc2C(=O)NC[C@@H](F)C(C)(C)O)s1 [Example 453] | 0.0026 µM
6 | CC(C)(F)CNc1cc(Nc2cc3scnc3cc2F)ncc1C(=O)NC[C@@H](F)C(C)(C)O [Example 454] | 0.0028 µM
7 | CC(C)Nc1cc(Nc2nc3scnc3cc2F)ncc1C(=O)NC[C@@H](F)C(C)(C)O [Example 455] | 0.0008 µM
8 | CC(C)Nc1cc(Nc2ccc3ncsc3c2)ncc1C(=O)NC1CCC(C(C)(C)O)CC1 (stereo not shown) [Example 456] | 0.0016 µM
9 | CC(C)Nc1cc(Nc2nc3ccnn3cc2F)ncc1C(=O)NC1CCC(C(C)(C)O)CC1 (stereo not shown) [Example 457] | 0.0034 µM
10 | CC(CO)Nc1cc(Nc2nc3scnc3cc2F)ncc1C(=O)NC[C@@H](F)C(C)(C)O (stereo partly shown) [Example 459] | 0.0034 µM
11 | CC(CO)Nc1cc(Nc2nc3scnc3cc2F)ncc1C(=O)NC[C@@H](F)C(C)(C)O (stereo partly shown) [Example 460] | 0.0033 µM
12 | CC(C)(O)[C@H](F)CNC(=O)c1cnc(Nc2nc3scnc3cc2F)cc1NC1CCCC1F (stereo partly shown) [Example 461] | 0.002 µM
13 | CC(C)(O)[C@H](F)CNC(=O)c1cnc(Nc2nc3scnc3cc2F)cc1NC1CCCC1F (stereo partly shown) [Example 462] | 0.0017 µM
14 | CC(C)(O)[C@H](F)CNC(=O)c1cnc(Nc2nc3scnc3cc2F)cc1NC1CC1 [Example 467] | 0.002 µM
15 | CCNc1cc(Nc2nc3scnc3cc2F)ncc1C(=O)NC[C@@H](F)C(C)(C)O [Example 468] | 0.0041 µM
16 | CC(C)(O)[C@H](F)CNC(=O)c1cnc(Nc2nc3scnc3cc2F)cc1NC1CCOCC1F (stereo partly shown) [Example 469] | 0.0031 µM
17 | CC(C)(O)[C@H](F)CNC(=O)c1cnc(Nc2nc3scnc3cc2F)cc1NC1CCOCC1F (stereo partly shown) [Example 470] | 0.0036 µM
18 | CC(C)(O)[C@H](F)CNC(=O)c1cnc(Nc2nc3scnc3cc2F)cc1NC1CCCOC1 (stereo partly shown) [Example 473] | 0.0015 µM
19 | CC(C)(O)[C@H](F)CNC(=O)c1cnc(Nc2nc3scnc3cc2F)cc1NC1CCCOC1 (stereo partly shown) [Example 474] | 0.0028 µM
20 | CC(C)Nc1cc(Nc2cc3ccnn3cc2F)ncc1C(=O)NC[C@@H](F)C(C)(C)O [Example 477] | 0.01 µM
21 | CC(C)(O)[C@H](F)CNC(=O)c1cnc(Nc2nc3ccnn3cc2F)cc1NC1CCC(F)C1 (stereo partly shown) [Example 478] | 0.0022 µM
22 | CC(C)(O)[C@H](F)CNC(=O)c1cnc(Nc2nc3ccnn3cc2F)cc1NC1CCCCC1F (stereo partly shown) [Example 479] | 0.0043 µM
23 | CC(C)Nc1cc(Nc2ccc3cc(C#N)ccc3n2)ncc1C(=O)NC[C@@H](F)C(C)(C)O [Example 480] | 0.0084 µM
24 | CC(C)(O)[C@H](F)CNC(=O)c1cnc(Nc2nc3ccnn3cc2F)cc1NC1CC2CC2C1(F)F (stereo partly shown) [Example 481] | 0.0036 µM
25 | Cc1cn2nccc2nc1Nc1cc(NC2CCOCC2)c(C(=O)NC[C@@H](F)C(C)(C)O)cn1 [Example 482] | 0.0103 µM
26 | CC(C)Nc1cc(Nc2nc3scnc3cc2F)ncc1C(=O)NCC(F)(F)C(C)(C)O [Example 483] | 0.0034 µM
27 | C[C@@H](CO)Nc1cc(Nc2nc3scnc3cc2F)ncc1C(=O)N[C@H]1CC[C@H](O)CC1 [Example 484] | 0.0087 µM
28 | Cc1cn2nccc2cc1Nc1cc(NC(C)C)c(C(=O)NC[C@@H](F)C(C)(C)O)cn1 [Example 487] | 0.0081 µM
29 | CC(C)(F)CNc1cc(Nc2ncc3ncsc3c2F)ncc1C(=O)NC1CCC(C(C)(C)O)CC1 (stereo not shown) [Example 489] | 0.0082 µM

system: TLR2 induced IL-6 in peripheral blood mononuclear cells (PBMCs); assay: PBMC TLR2 Induced IL-6 Assay; type: cell-based, human; conditions: Homo sapiens, PBMC, 5 h, human PBMCs, 10 μg/ml lipoteichoic acid for 5 hours, IL-6 by ELISA; EC50 determinations are indicated with an asterisk; read-out: Cell EC50 (asterisk)
How it was run: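 Human PBMCs (250000 cells/well) in RPMI with 10% heat-inactivated FCS pre-treated with compound for 30 min at 37° C, then stimulated 5 h with 10 μg/ml lipoteichoic acid. Supernatant IL-6 measured by ELISA and reported as IC50 or EC50.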

Row | Compound | EC50
30 | CC(C)Nc1cc(Nc2ccc3cc(C#N)ccc3n2)ncc1C(=O)NC[C@@H](F)C(C)(C)O [Example 480] | 0.877 µM
31 | Cc1cn2nccc2nc1Nc1cc(NC2CCOCC2)c(C(=O)NC[C@@H](F)C(C)(C)O)cn1 [Example 482] | 0.251 µM
32 | Cc1cn2nccc2cc1Nc1cc(NC(C)C)c(C(=O)NC[C@@H](F)C(C)(C)O)cn1 [Example 487] | 0.632 µM
33 | CC(C)(F)CNc1cc(Nc2ncc3ncsc3c2F)ncc1C(=O)NC1CCC(C(C)(C)O)CC1 (stereo not shown) [Example 489] | 0.374 µM

same assay, conditions: Homo sapiens, PBMC, 5 h, human PBMCs, 10 μg/ml lipoteichoic acid for 5 hours, IL-6 by ELISA; value without asterisk; read-out: Cell IC50

Row | Compound | IC50
34 | CC(F)CNc1cc(Nc2ccc3ncsc3c2)ncc1C(=O)NC[C@@H](F)C(C)(C)O (stereo partly shown) [Example 450] | 0.217 µM
35 | CC(C)(O)[C@H](F)CNC(=O)c1cnc(Nc2ccn3nccc3n2)cc1NC1CC2CC2C1(F)F (stereo partly shown) [Example 452] | 0.239 µM
36 | CC(C)(O)c1cnc(Nc2cc(Nc3nc4ccnn4cc3F)ncc2C(=O)NC[C@@H](F)C(C)(C)O)s1 [Example 453] | 0.836 µM
37 | CC(C)(F)CNc1cc(Nc2cc3scnc3cc2F)ncc1C(=O)NC[C@@H](F)C(C)(C)O [Example 454] | 0.038 µM
38 | CC(C)Nc1cc(Nc2nc3scnc3cc2F)ncc1C(=O)NC[C@@H](F)C(C)(C)O [Example 455] | 0.573 µM
39 | CC(C)Nc1cc(Nc2ccc3ncsc3c2)ncc1C(=O)NC1CCC(C(C)(C)O)CC1 (stereo not shown) [Example 456] | 0.336 µM
40 | CC(C)Nc1cc(Nc2nc3ccnn3cc2F)ncc1C(=O)NC1CCC(C(C)(C)O)CC1 (stereo not shown) [Example 457] | 1.55 µM
41 | CC(C)(O)[C@H](F)CNC(=O)c1cnc(Nc2nc3scnc3cc2F)cc1NC1CCCC1F (stereo partly shown) [Example 461] | 0.147 µM
42 | CC(C)(O)[C@H](F)CNC(=O)c1cnc(Nc2nc3scnc3cc2F)cc1NC1CC1 [Example 467] | 0.428 µM
43 | CCNc1cc(Nc2nc3scnc3cc2F)ncc1C(=O)NC[C@@H](F)C(C)(C)O [Example 468] | 0.246 µM
44 | CC(C)(O)[C@H](F)CNC(=O)c1cnc(Nc2nc3scnc3cc2F)cc1NC1CCOCC1F (stereo partly shown) [Example 469] | 0.476 µM
45 | CC(C)(O)[C@H](F)CNC(=O)c1cnc(Nc2nc3scnc3cc2F)cc1NC1CCCOC1 (stereo partly shown) [Example 473] | 0.401 µM
46 | CC(C)Nc1cc(Nc2cc3ccnn3cc2F)ncc1C(=O)NC[C@@H](F)C(C)(C)O [Example 477] | 0.717 µM
47 | CC(C)(O)[C@H](F)CNC(=O)c1cnc(Nc2nc3ccnn3cc2F)cc1NC1CCCCC1F (stereo partly shown) [Example 479] | 0.473 µM
48 | CC(C)(O)[C@H](F)CNC(=O)c1cnc(Nc2nc3ccnn3cc2F)cc1NC1CC2CC2C1(F)F (stereo partly shown) [Example 481] | 0.223 µM
49 | CC(C)Nc1cc(Nc2nc3scnc3cc2F)ncc1C(=O)NCC(F)(F)C(C)(C)O [Example 483] | 0.463 µM
50 | C[C@@H](CO)Nc1cc(Nc2nc3scnc3cc2F)ncc1C(=O)N[C@H]1CC[C@H](O)CC1 [Example 484] | 1.35 µM

same assay, conditions: human PBMCs, 10 μg/ml lipoteichoic acid for 5 hours, IL-6 by ELISA; value without asterisk; read-out: Cell IC50

Row | Compound | IC50
51 | CC(C)(O)[C@H](F)CNC(=O)c1cnc(Nc2ncc3ncccc3n2)cc1NC1CCC(F)C1 (stereo partly shown) [Example 448] | 0.047 µM
52 | CC(F)CNc1cc(Nc2ccc3ncsc3c2)ncc1C(=O)NC[C@@H](F)C(C)(C)O (stereo partly shown) [Example 451] | 0.258 µM
53 | CC(CO)Nc1cc(Nc2nc3scnc3cc2F)ncc1C(=O)NC[C@@H](F)C(C)(C)O (stereo partly shown) [Example 459] | 0.141 µM
54 | CC(CO)Nc1cc(Nc2nc3scnc3cc2F)ncc1C(=O)NC[C@@H](F)C(C)(C)O (stereo partly shown) [Example 460] | 0.553 µM
55 | CC(C)(O)[C@H](F)CNC(=O)c1cnc(Nc2nc3scnc3cc2F)cc1NC1CCCC1F (stereo partly shown) [Example 462] | 0.115 µM
56 | CC(C)(O)[C@H](F)CNC(=O)c1cnc(Nc2nc3scnc3cc2F)cc1NC1CCOCC1F (stereo partly shown) [Example 470] | 0.635 µM
57 | CC(C)(O)[C@H](F)CNC(=O)c1cnc(Nc2nc3scnc3cc2F)cc1NC1CCCOC1 (stereo partly shown) [Example 474] | 0.204 µM
58 | CC(C)(O)[C@H](F)CNC(=O)c1cnc(Nc2nc3ccnn3cc2F)cc1NC1CCC(F)C1 (stereo partly shown) [Example 478] | 0.05 µM
